Test results reported in US6288091A, “Antiherpes virus compounds and methods for their preparation and use” (Boehringer Ingelheim Ltd., priority 1999, dated 2001).
Read-outs that look alike come from different tables or passages of the source.

Legend:
HSV-1 strain F or KOS = assay: Inhibition of herpes simplex virus (HSV-1) replication in cell culture (BHK-21 cells, glycoprotein C ELISA); format: cell-based
In short: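 BHK-21 clone 13 cells infected with HSV-1 F or KOS at MOI 0.05 PFU/cell for 1 h at 37°, washed, then treated with compound in α-MEM/2% FBS for 24 h. Late glycoprotein C quantified by ELISA (mAb C11, HRP/OPD, 450 nm); EC50 from % inhibition.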

HSV-1 helicase-primase = biological target: T1, HSV-1 helicase-primase (Human herpesvirus 1, UniProt P10189+P10236); assay: HSV-1 DNA-dependent ATPase assay (inhibition of HSV-1 helicase-primase); format: biochemical
T1 construct: made in house; host or cells: Sf21 insect cells triply infected with recombinant baculoviruses (UL5, UL8, UL52)
T1 sequence (P10192 whole entry): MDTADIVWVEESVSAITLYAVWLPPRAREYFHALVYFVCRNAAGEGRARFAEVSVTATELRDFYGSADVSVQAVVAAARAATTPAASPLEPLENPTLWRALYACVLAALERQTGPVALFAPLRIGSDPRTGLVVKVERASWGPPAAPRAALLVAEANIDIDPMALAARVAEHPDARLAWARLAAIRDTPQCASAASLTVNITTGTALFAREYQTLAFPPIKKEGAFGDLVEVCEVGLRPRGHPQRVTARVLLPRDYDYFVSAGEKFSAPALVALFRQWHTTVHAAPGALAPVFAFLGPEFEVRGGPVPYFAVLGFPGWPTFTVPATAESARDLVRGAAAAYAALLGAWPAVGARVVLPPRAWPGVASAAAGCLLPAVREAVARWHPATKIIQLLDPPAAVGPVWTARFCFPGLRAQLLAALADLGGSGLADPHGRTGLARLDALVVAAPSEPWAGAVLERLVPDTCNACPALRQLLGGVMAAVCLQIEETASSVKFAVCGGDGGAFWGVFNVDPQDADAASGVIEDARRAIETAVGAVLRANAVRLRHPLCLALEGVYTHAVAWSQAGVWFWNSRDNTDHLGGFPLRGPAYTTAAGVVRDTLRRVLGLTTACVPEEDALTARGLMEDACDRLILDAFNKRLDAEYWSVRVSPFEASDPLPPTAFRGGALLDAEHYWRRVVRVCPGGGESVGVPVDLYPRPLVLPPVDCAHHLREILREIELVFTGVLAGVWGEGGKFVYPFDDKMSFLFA
T1 sequence (P10236 whole entry): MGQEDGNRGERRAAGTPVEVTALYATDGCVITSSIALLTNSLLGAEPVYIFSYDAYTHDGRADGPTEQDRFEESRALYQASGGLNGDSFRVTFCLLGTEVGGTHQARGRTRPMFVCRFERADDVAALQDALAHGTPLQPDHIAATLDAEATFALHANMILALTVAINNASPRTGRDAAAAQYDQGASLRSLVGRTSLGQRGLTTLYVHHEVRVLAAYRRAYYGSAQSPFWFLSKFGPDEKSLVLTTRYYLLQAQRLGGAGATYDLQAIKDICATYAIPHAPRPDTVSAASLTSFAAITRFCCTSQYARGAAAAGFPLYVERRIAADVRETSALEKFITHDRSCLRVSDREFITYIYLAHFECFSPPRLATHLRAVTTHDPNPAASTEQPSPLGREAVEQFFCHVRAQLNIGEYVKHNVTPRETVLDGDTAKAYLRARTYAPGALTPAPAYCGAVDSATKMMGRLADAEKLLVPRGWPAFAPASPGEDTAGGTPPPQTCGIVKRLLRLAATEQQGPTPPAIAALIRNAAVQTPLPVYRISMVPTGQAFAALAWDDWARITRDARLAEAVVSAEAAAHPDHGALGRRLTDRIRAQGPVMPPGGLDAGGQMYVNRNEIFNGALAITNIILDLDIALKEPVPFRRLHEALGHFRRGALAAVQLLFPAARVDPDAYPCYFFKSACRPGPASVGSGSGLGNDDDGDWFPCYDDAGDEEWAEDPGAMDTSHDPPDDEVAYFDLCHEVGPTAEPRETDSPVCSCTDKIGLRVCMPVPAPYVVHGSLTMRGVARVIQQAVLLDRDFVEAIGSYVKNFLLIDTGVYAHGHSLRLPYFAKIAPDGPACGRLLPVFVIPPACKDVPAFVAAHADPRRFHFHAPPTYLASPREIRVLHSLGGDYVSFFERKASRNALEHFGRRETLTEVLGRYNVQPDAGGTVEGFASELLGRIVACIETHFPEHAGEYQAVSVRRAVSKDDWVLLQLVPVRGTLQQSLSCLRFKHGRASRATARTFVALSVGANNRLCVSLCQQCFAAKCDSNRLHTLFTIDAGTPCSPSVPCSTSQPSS
T1 sequence (P10189 whole entry): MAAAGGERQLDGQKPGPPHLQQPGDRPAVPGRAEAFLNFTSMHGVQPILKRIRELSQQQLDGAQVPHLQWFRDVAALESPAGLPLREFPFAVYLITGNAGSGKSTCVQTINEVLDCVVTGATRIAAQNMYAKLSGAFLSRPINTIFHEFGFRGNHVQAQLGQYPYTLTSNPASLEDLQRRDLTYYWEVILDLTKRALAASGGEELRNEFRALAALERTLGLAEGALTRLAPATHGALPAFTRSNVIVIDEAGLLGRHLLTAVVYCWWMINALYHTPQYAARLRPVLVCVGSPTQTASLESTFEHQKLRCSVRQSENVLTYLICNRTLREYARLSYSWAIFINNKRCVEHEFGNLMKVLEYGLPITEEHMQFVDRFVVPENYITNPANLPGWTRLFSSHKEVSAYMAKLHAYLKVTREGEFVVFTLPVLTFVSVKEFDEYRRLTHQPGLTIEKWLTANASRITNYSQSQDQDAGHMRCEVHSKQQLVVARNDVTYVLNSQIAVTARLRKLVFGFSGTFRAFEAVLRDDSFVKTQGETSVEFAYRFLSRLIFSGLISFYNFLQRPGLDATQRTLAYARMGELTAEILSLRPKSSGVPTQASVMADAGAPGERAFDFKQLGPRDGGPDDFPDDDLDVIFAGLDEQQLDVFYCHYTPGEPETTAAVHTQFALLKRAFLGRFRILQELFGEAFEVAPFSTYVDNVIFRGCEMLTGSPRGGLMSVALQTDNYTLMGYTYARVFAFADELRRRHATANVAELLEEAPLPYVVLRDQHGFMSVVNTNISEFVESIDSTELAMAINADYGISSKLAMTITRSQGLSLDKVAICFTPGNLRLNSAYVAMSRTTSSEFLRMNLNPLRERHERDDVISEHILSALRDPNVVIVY
In short: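 Holoenzyme (UL5/UL8/UL52) expressed in baculovirus-infected Sf21 cells and purified, used at 3 μg/mL with 4 mM ATP and 25 μM primed M13 ssDNA in HEPES pH 7.5, 5.5 mM MgCl2, 3.3% DMSO. Incubated 20 min at 34°. Released phosphate read by malachite green at 650 nm, and activity taken from net absorbance with versus without inhibitor.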

HCMV (strain AD169) = assay: Inhibition of HCMV replication, ELISA assay (Hs-68 cells); format: cell-based, Human Cytomegalovirus (HCMV); conditions: read-out: ELISA CMV EC50
Protocol: C) Inhibition of Human Cytomegalovirus (HCMV) Replication
The effect of compounds on the replication of HCMV has been measured by using an ELISA-based assay (ELISA) and a plaque reduction assay (PRA).
Hs-68 cells (ATCC # CRL 1635) were seeded in 96 well microtiter plates at 10,000 cells/well in 100 μL of DMEM medium (Gibco Canada Inc.) supplemented with 10% fetal bovine serum (FBS, Gibco Canada Inc.). The plates were incubated for 3 days at 37° to allow the cells to reach 80-90% confluency prior to the assay.
The medium was removed from wells by aspiration. The cells then were infected at a multiplicity of infection (MOI) of 0.01 PFU/cell with 50 μL of HCMV (strain AD169, ATCC VR-538) in DMEM medium supplemented with 5% heat inactivated FBS (assay medium). The virus was allowed to adsorb to cells for 2 h at 37°. Following viral adsorption, the medium was removed from the wells by aspiration. The cells were washed twice with 200 μL of assay medium to remove unabsorbed virus. The cells were then incubated with or without 100 μL of appropriate concentrations of test reagent in assay medium. After 8 days of incubation at 37°, the extent of viral replication was determined by an ELISA assay which detects the late structural protein p28 of HCMV.
Eight days after infection, the medium was aspirated from the wells. Non-specific binding sites were blocked by adding 200 μL of phosphate buffered saline containing 1% (w/v) bovine serum albumin (blocking buffer) to each well and incubating the plates for 30 min at room temperature. After removal of the blocking buffer by aspiration, the cells were fixed with 100 μL of cold ethanol-acetone solution (95:5) per well. The plates were placed at -20° for 30 min. The plates were washed 4 times with phosphate buffered saline containing 0.05% (v/v) polyoxyethylene sorbitan monolaurate (Tween®). Thereafter, 100 μL of mAb UL99 (Advanced Biotechnologies Inc., #13-130-100) recognizing HCMV protein p28 was added to each wells and plates were incubated for 2 h at room temperature. The plates were washed four times with 200 μL of the above-noted phosphate buffered saline/Tween-20® solution. The cells were then incubated with 100 μL of sheep anti-mouse IgGγ horseradish peroxidase conjugated for 2 h at room temperature. The plates were then washed four times with 200 μL of above-noted phosphate buffered saline/Tween-20® solution. Thereafter, 100 μL of ortho phenylenediamine dihydrochloride (OPD, Gibco Canada Inc.) solution was added to each well and the plates were agitated on a microplate shaker for 30 min in the dark. Color development was monitored at 450 nm using a microplate spectrophotometer.
The SAS program was used to calculate the % inhibition of viral replication and to generate EC50 values.
The EC50 values obtained according to this assay method for certain thiazolylphenyl derivatives of this invention are listed in the following tables under the heading ELISA CMV.

[1] = Human alphaherpesvirus 1, BHK-21, Group 1 Table 1 entries
[2] = Human betaherpesvirus 5, AD169, Hs68, Group 1 Table 1 entries
[3] = Human alphaherpesvirus 1, BHK-21, Group 1 Table 3 entries
[4] = Human betaherpesvirus 5, AD169, Hs68, Group 1 Table 3 entries
[5] = Human alphaherpesvirus 1, BHK-21, Group 1 Table 5 entries
[6] = Human betaherpesvirus 5, AD169, Hs68, Group 1 Table 5 entries

Q: What does the source list for CC(C)(C)OC(=O)N1CCC(C(=O)N(CC(=O)Nc2ccc(-c3csc(N)n3)cc2)Cc2ccccc2)CC1 [Example 40]?
A: EC50 (HSV-1 strain F or KOS; [1]): 700 nM; IC50 (HSV-1 helicase-primase; Group 1 Table 1 entries): 1700 nM; EC50 (HCMV (strain AD169); [2]): 25000 nM

Q: Which EC50 (HSV-1 strain F or KOS; [3]) does the source give for CN(C)c1nc(-c2ccc(NC(=O)CN(Cc3ccccc3)C(=O)OC(C)(C)C)cc2)cs1 [Example 16] here?
A: 9 nM

Q: What about the IC50 (HSV-1 helicase-primase; Group 1 Table 3 entries) of the same compound?
A: > 50000 nM

Q: And the EC50 (HCMV (strain AD169); [4])?
A: 4800 nM

Q: CN(C(=O)CN(Cc1ccccc1)C(=O)c1ccncc1)c1ccc(-c2csc(N)n2)cc1 [Example 2] was tested. Which EC50 (HSV-1 strain F or KOS; [3]) did it give?
A: 340 nM

Q: And the IC50 (HSV-1 helicase-primase; Group 1 Table 3 entries)?
A: 1500 nM

Q: And the EC50 (HCMV (strain AD169); [4])?
A: 78000 nM

Q: How did the EC50 (HSV-1 strain F or KOS; [1]) turn out when Nc1nc(-c2ccc(NC(=O)CNCCN3CCOCC3)cc2)cs1 [Example 14] was run?
A: 3200 nM

Q: And the IC50 (HSV-1 helicase-primase; Group 1 Table 1 entries)?
A: 7700 nM

Q: And the EC50 (HCMV (strain AD169); [2])?
A: 67000 nM

Q: With C[C@H](NCc1ccccc1)C(=O)Nc1ccc(-c2csc(N)n2)cc1 [Example 12] as the compound, how does the EC50 (HSV-1 strain F or KOS; [5]) read?
A: 820 nM

Q: What about the IC50 (HSV-1 helicase-primase; Group 1 Table 5 entries) of the same compound?
A: 1300 nM

Q: And the EC50 (HCMV (strain AD169); [6])?
A: 4100 nM

Q: Which EC50 (HSV-1 strain F or KOS; [1]) does the source give for Nc1nc(-c2ccc(NC(=O)CN(Cc3ccccn3)C(=O)c3ccncc3)cc2)cs1 [Example 56] here?
A: 550 nM

Q: And the IC50 (HSV-1 helicase-primase; Group 1 Table 1 entries)?
A: 1200 nM

Q: And the EC50 (HCMV (strain AD169); [2])?
A: 38000 nM

Q: For Nc1nc(CC(=O)N(CC(=O)Nc2ccc(-c3csc(N)n3)cc2)Cc2ccccc2)cs1 [Example 119], which IC50 (HSV-1 helicase-primase; Group 1 Table 1 entries) is on record?
A: 680 nM

Q: And the EC50 (HCMV (strain AD169); [2])?
A: 25000 nM

Q: Which EC50 (HSV-1 strain F or KOS; Human alphaherpesvirus 1, BHK-21, Group 1 Table 6 entries) does the source give for CC(C)(C)OC(=O)N1CCC[C@H]1C(=O)Nc1ccc(-c2csc(N)n2)cc1 [Example 4] here?
A: 210 nM

Q: What about the IC50 (HSV-1 helicase-primase; Group 1 Table 6 entries) of the same compound?
A: 460 nM

Q: What about the EC50 (HCMV (strain AD169); Human betaherpesvirus 5, AD169, Hs68, Group 1 Table 6 entries) of the same compound?
A: > 64000 nM

Q: What does the source list for Nc1nc(-c2ccc(NC(=O)CN(CC3CCCCC3)C(=O)CC3CCCCC3)cc2)cs1 [Example 76]?
A: EC50 (HSV-1 strain F or KOS; [1]): 160 nM; IC50 (HSV-1 helicase-primase; Group 1 Table 1 entries): 80 nM; EC50 (HCMV (strain AD169); [2]): 25000 nM

Q: Which EC50 (HSV-1 strain F or KOS; [3]) does the source give for CN(C)c1nc(-c2ccc(NC(=O)CNCC3CCCCC3)cc2)cs1 [Example 13] here?
A: > 4000 nM

Q: And the IC50 (HSV-1 helicase-primase; Group 1 Table 3 entries)?
A: > 50000 nM

Q: And the EC50 (HCMV (strain AD169); [4])?
A: 36000 nM

Q: Which EC50 (HSV-1 strain F or KOS; [1]) does the source give for CN(C)S(=O)(=O)N(CC(=O)Nc1ccc(-c2csc(N)n2)cc1)Cc1ccccc1 [Example 106] here?
A: 160 nM

Q: What about the IC50 (HSV-1 helicase-primase; Group 1 Table 1 entries) of the same compound?
A: 1000 nM

Q: And the EC50 (HCMV (strain AD169); [2])?
A: > 6000 nM

Q: CC(C)OC(=O)N[C@@H](Cc1ccccc1)C(=O)Nc1ccc(-c2csc(N)n2)cc1 [Example 22] was tested. Which EC50 (HSV-1 strain F or KOS; [5]) did it give?
A: 250 nM

Q: What about the IC50 (HSV-1 helicase-primase; Group 1 Table 5 entries) of the same compound?
A: 830 nM

Q: And the EC50 (HCMV (strain AD169); [6])?
A: 18000 nM

Q: With Nc1nc(-c2ccc(NC(=O)CNCC3CCCCC3)cc2)cs1 [Example 8] as the compound, how does the EC50 (HSV-1 strain F or KOS; [1]) read?
A: 8000 nM

Q: What about the IC50 (HSV-1 helicase-primase; Group 1 Table 1 entries) of the same compound?
A: 2900 nM

Q: What about the EC50 (HCMV (strain AD169); [2]) of the same compound?
A: 3600 nM

Q: Which results are given for Cc1nc(-c2ccc(NC(=O)CN(Cc3ccccc3)C(=O)C3CCCCC3)cc2)cs1 [Example 4]?
A: EC50 (HSV-1 strain F or KOS; [3]): 120 nM; IC50 (HSV-1 helicase-primase; Group 1 Table 3 entries): 190 nM; EC50 (HCMV (strain AD169); [4]): 12000 nM

Q: CN(C)c1nc(-c2ccc(NC(=O)CN(Cc3ccccc3)C(=O)c3ccncc3)cc2)cs1 [Example 14] was tested. Which EC50 (HSV-1 strain F or KOS; [3]) did it give?
A: 500 nM

Q: And the IC50 (HSV-1 helicase-primase; Group 1 Table 3 entries)?
A: > 50000 nM

Q: And the EC50 (HCMV (strain AD169); [4])?
A: 20000 nM

Q: CC(C)(C)OC(=O)N[C@@H](Cc1cccnc1)C(=O)Nc1ccc(-c2csc(N)n2)cc1 [Example 26] was tested. Which EC50 (HSV-1 strain F or KOS; [5]) did it give?
A: 43 nM

Q: And the IC50 (HSV-1 helicase-primase; Group 1 Table 5 entries)?
A: 130 nM

Q: What about the EC50 (HCMV (strain AD169); [6]) of the same compound?
A: 19900 nM

Q: Which EC50 (HSV-1 strain F or KOS; [3]) does the source give for CN(C)c1nc(-c2ccc(NC(=O)CN(CC3CCCCC3)C(=O)OC(C)(C)C)cc2)cs1 [Example 17] here?
A: > 8000 nM

Q: And the IC50 (HSV-1 helicase-primase; Group 1 Table 3 entries)?
A: > 50000 nM

Q: What about the EC50 (HCMV (strain AD169); [4]) of the same compound?
A: 4000 nM

Q: What does the source list for COC(=O)N(CC(=O)Nc1ccc(-c2csc(N)n2)cc1)Cc1ccccc1 [Example 87]?
A: EC50 (HSV-1 strain F or KOS; [1]): 1100 nM; IC50 (HSV-1 helicase-primase; Group 1 Table 1 entries): 2800 nM; EC50 (HCMV (strain AD169); [2]): 18000 nM

Q: Which EC50 (HSV-1 strain F or KOS; [1]) does the source give for Nc1nc(-c2ccc(NC(=O)CN(Cc3ccncc3)C(=O)c3ccc(F)cc3)cc2)cs1 [Example 73] here?
A: 17 nM

Q: What about the IC50 (HSV-1 helicase-primase; Group 1 Table 1 entries) of the same compound?
A: 88 nM

Q: And the EC50 (HCMV (strain AD169); [2])?
A: 12600 nM
